Experimental data reported in the supplement of paper PMC10307832.

Key:
Experiment in all cases: relative viability (nuclei count vs DMSO), 5 days (fraction); higher = more cells survive
[1] = compound: CC(C)C[C@H](NC(=O)[C@H](CCc1ccccc1)NC(=O)CN1CCOCC1)C(=O)N[C@@H](Cc1ccccc1)C(=O)N[C@@H](CC(C)C)C(=O)[C@@]1(C)CO1 [Carfilzomib] + C[C@@H](Oc1cc(-c2cnn(C3CCNCC3)c2)cnc1N)c1c(Cl)ccc(F)c1Cl [Crizotinib] (partner 1 µM)
How it was run: (§1)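 Values are medians from duplicate plates. Each reflects relative viability, defined as the nuclei count of treated wells over that of vehicle wells. Lung cancer cell lines in 1536-well plates were pin-tool dosed one day after seeding with one drug alone or with a fixed anchor-drug dose plus five library-drug doses (not always all listed) in √10 steps, then fixed, stained and imaged at 4× after 5 days.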

[2] = compound: C[C@@H](Oc1cc(-c2cnn(C3CCNCC3)c2)cnc1N)c1c(Cl)ccc(F)c1Cl [Crizotinib] + NC(=O)Nc1cc(-c2cccc(F)c2)sc1C(=O)N[C@H]1CCCNC1 [AZD7762] (partner 0.2 µM)
How it was run: as §1

[3] = compound: O=C(c1cc(Cc2n[nH]c(=O)c3ccccc23)ccc1F)N1CCN(C(=O)C2CC2)CC1 [Olaparib] + C[C@@H](Oc1cc(-c2cnn(C3CCNCC3)c2)cnc1N)c1c(Cl)ccc(F)c1Cl [Crizotinib] (partner 1 µM)
How it was run: as §1

[4] = compound: O=C(c1cc(Cc2n[nH]c(=O)c3ccccc23)ccc1F)N1CCN(C(=O)C2CC2)CC1 [Olaparib] + C[C@]1(O)C[C@@H](c2nc(-c3ccc4ccc(-c5ccccc5)nc4c3)c3c(N)nccn32)C1 [Linsitinib] (partner 1 µM)
How it was run: as §1

Row | Cell Line | relative viability ([1]; first compound 0.001 µM) | relative viability ([1]; first compound 0.003162 µM) | relative viability ([1]; first compound 0.01 µM) | relative viability ([1]; first compound 0.03162 µM) | relative viability ([1]; first compound 0.1 µM) | relative viability ([2]; first compound 0.01 µM) | relative viability ([2]; first compound 0.03162 µM) | relative viability ([2]; first compound 0.1 µM) | relative viability ([2]; first compound 0.3162 µM) | relative viability ([2]; first compound 1 µM) | relative viability ([3]; first compound 0.08 µM) | relative viability ([3]; first compound 0.253 µM) | relative viability ([3]; first compound 2.53 µM) | relative viability ([3]; first compound 8 µM) | relative viability ([4]; first compound 0.08 µM) | relative viability ([4]; first compound 0.253 µM) | relative viability ([4]; first compound 2.53 µM) | relative viability ([4]; first compound 8 µM)
1 | NCI-H2405 | 0.807 | 0.916 | 0.866 | 0.785 | 0.175 | 0.632 | 0.695 | 0.684 | 0.763 | 0.755 | 0.948 | 0.83 | 0.769 | 0.809 | 1.15 | 0.93 | 0.915 | 0.851
2 | NCI-H3122 | 0.3 | 0.286 | 0.259 | 0.303 | 0.274 | 1.01 | 1.05 | 0.93 | 0.962 | 0.921 | 0.266 | 0.292 | 0.266 | 0.28 | 0.95 | 1.04 | 0.954 | 0.899
3 | PC-3 [JPC-3] | 1.01 | 0.99 | 0.985 | 0.828 | 0.376 | 0.687 | – | 0.907 | – | 0.772 | 1 | 0.902 | 1.01 | 0.928 | 0.93 | 0.914 | 0.962 | 0.908
4 | PC-14 | 0.939 | 0.934 | 0.9 | 0.326 | 0.0895 | 0.342 | 0.392 | 0.401 | 0.355 | 0.382 | 0.883 | 0.824 | 0.849 | 0.657 | 1.02 | 0.856 | 0.859 | 0.815
5 | RERF-LC-KJ | 0.899 | 0.801 | 0.86 | 0.78 | 0.359 | 1.02 | 0.956 | 0.956 | 0.946 | 0.994 | 0.811 | 0.775 | 0.911 | 0.755 | 0.939 | 0.903 | 0.948 | 0.902
